Patent US8507523B2, “Therapeutic tetrahydroisoquinoline-based compositions for cancer therapy” (priority 2006, dated 2013)
Counter-ions that a name gives are not always drawn. Like-named read-outs stand apart in the source and are kept apart here.

Experiments:
[1] = tested on: normal primary cultures of rat brain astrocytes; test: Dose response (percent survival) in primary cultures of astrocytes; type: cell-based; settings: 4 days of treatment
Source text: (§1) 6,7-Dimethoxy-1-[4-(4-methoxypyridin-3-yl)benzyl]-1,2,3,4-tetrahydroisoquinolinehydrochloride (EDL-291) was synthesized as described herein in the laboratory of Dr. Duane D. Miller at The University of Tennessee Health Science Center. Briefly, the primary cultures of astrocytes and cultures of C6 glioma cell lines were handled identically with respect to treatment concentrations and manipulations of cells for the screening assays. The cells were trypsinized and transferred to 96-well plates at a cell density of 10^3 cells/mm^2 in the wells. The cells were grown overnight in 100 μL of 10% FCS BME in a 37° C. incubator containing a humid, 5% CO2 atmosphere.
(§2) EDL291 was dissolved completely to make a […] stock solution and diluted to produce a series of concentrations. A 20 μL aliquot of these initial solutions was added to 180 μl of 2% FCS BME to produce the test concentration. The vehicle solution was tested as a control. […] Immediately before treatment, the 10% FCS BME was removed from the cells and replaced with the 180 μl of the treatment medium. The cultured cells (normal primary cultures of rat brain astrocytes or C6 glioma purchased from ATCC) were incubated with test compound for 4 days. The cells were fixed with 4% paraformaldehyde, stained with 0.1% Cresylecth violet stain, and quantitated. The screening data was collected as four wells for each dose per compound (screening) or concentration (dose response curve). Also, the average growth of 8 wells with no treatment was used as a negative control for each plate (100% growth). The cells for dose response curves were grown in the same media and were handled in a similar manner as in the screening assays.
(§3) The cytotoxic character of each compound was reported as the percent survival, calculated as the average A560 for treated cells divided by A560 of untreated (100% control) cells, and expressed as a percentage. Values less than 100% indicate a cytostatic or cytotoxic effect. Dose response curves and EC50 values were attained via plots of percent survival vs. concentration.

[2] = tested on: C6 glioma; test: Dose response (percent survival) in C6 glioma cell cultures; type: cell-based, rat; settings: C6 glioma cells, 4 days of treatment, percent survival
Source text: as §1, §2, §3

[3] = Rattus norvegicus, Astrocyte, 96 h
[4] = Rattus norvegicus, C6 glioma, 96 h

| SMILES | EC50 [1, 3] [µM] | EC50 [2, 4] [µM] | EC50 μM Astrocyte [1] | other results |
| --- | --- | --- | --- | --- |
| COc1cc2c(cc1OC)C(Cc1ccc(-c3ccncc3)cc1)N(C(=O)OC(C)(C)C)CC2 (stereo not drawn) [Compound 3, 6,7-Dimethoxy-1-(4-pyridin-4-yl-benzyl)-3,4-dihydro-1H-isoquinoline-2-carboxylic acid tert-butyl ester] | 18.4 | 5.92 |  |  |
| COc1cc2c(cc1OC)C(Cc1ccc(-c3ccncc3)cc1)NCC2 (stereo not drawn) [Compound 4, 6,7-Dimethoxy-1-(4-pyridin-4-ylbenzyl)-1,2,3,4-tetrahydroisoquinoline hydrochloride salt] | 74.4 | 17.7 |  |  |
| COc1cc2c(cc1OC)C(Cc1ccc(-c3cccnc3OC)cc1)N(C(=O)OC(C)(C)C)CC2 (stereo not drawn) [Compound 6, 6,7-Dimethoxy-1-[4-(2-methoxypyridin-3-yl)benzyl]-3,4-dihydro-1H-isoquinoline-2-carboxylic acid tert-butyl ester] |  | 4.3 | No Effect |  |
| COc1cc2c(cc1OC)C(Cc1ccc(-c3cccnc3OC)cc1)NCC2 (stereo not drawn) [Compound 7, 6,7-Dimethoxy-1-[4-(2-methoxypyridin-3-yl)benzyl]-1,2,3,4-tetrahydroisoquinoline hydrochloride salt] | 50 to 100 | 1.75 |  |  |
| COc1cc2c(cc1OC)C(Cc1ccc(-c3cccnc3OC)cc1)N(C)CC2 (stereo not drawn) [Compound 8, 6,7-dimethoxy-1-[4-(2-methoxypyridin-3-yl)benzyl]-2-methyl-1,2,3,4-tetrahydro-isoquinoline] | 27.3 |  |  | EC50 ([2]; listed as drawing 26): 2.2 µM |
| COc1cc2c(cc1OC)C(Cc1ccc(-c3cccnc3OC)cc1)N(C)CC2 (stereo not drawn) [Compound 9, 6,7-Dimethoxy-1-[4-(2-methoxypyridin-3-yl)benzyl]-2-methyl-1,2,3,4-tetrahydroisoquinolinehydrochloride] |  |  |  | EC50 ([1]; read-out: EC50 μM Astrocyte): 25.3 µM; EC50 ([2]; listed as drawing 27): 5.5 µM |
| COc1cc2c(cc1OC)C(Cc1ccc(-c3ccncc3OC)cc1)N(C(=O)OC(C)(C)C)CC2 (stereo not drawn) [Compound 11, 6,7-Dimethoxy-1-[4-(3-methoxypyridin-4-yl)benzyl]-3,4-dihydro-1H-isoquinoline-2-carboxylic acid tert-butyl ester] | 13.6 | 4.4 |  |  |
| COc1cc2c(cc1OC)C(Cc1ccc(-c3ccncc3OC)cc1)NCC2 (stereo not drawn) [Compound 12, 6,7-Dimethoxy-1-[4-(3-methoxypyridin-4-yl)benzyl]-1,2,3,4-tetrahydroisoquinoline hydrochloride salt] | 49.5 | 6.9 |  |  |
| COc1cc2c(cc1OC)C(Cc1ccc(-c3ccccc3NS(C)(=O)=O)cc1)N(C(=O)OC(C)(C)C)CC2 (stereo not drawn) [Compound 14, 1-(2′-Methanesulfonylaminobiphenyl-4-ylmethyl)-6,7-dimethoxy-3,4-dihydro-1H-isoquinoline-2-carboxylic acid tert-butyl ester] |  | 6.2 | No Effect |  |
| COc1cc2c(cc1OC)C(Cc1ccc(-c3ccccc3NS(C)(=O)=O)cc1)NCC2 (stereo not drawn) [Compound 15, N-[4′-(6,7-Dimethoxy-1,2,3,4-tetrahydroisoquinolin-1-ylmethyl)-biphenyl-2-yl]-methanesulfonamide hydrochloride salt] | 50 to 100 | 8.9 |  |  |
| COc1cc2c(cc1OC)C(Cc1ccc(-c3ccccc3NC(C)=O)cc1)N(C(=O)OC(C)(C)C)CC2 (stereo not drawn) [Compound 17, 1-(2′-Acetylaminobiphenyl-4-ylmethyl)-6,7-dimethoxy-3,4-dihydro-1H-isoquinoline-2-carboxylic acid tert-butyl ester] |  | 9.2 | No Effect |  |
| COc1cc2c(cc1OC)C(Cc1ccc(-c3ccccc3NC(C)=O)cc1)NCC2.Cl (stereo not drawn) [Compound 18, N-[4′-(6,7-Dimethoxy-1,2,3,4-tetrahydroisoquinolin-1-ylmethyl)biphenyl-2-yl]acetamide hydrochloride salt] |  | 22.4 | No Effect |  |
| COc1cc2c(cc1OC)C(Cc1ccc(-c3cnccc3OC)cc1)N(C(=O)OC(C)(C)C)CC2 (stereo not drawn) [Compound 20, 6,7-Dimethoxy-1-[4-(4-methoxypyridin-3-yl)benzyl]-3,4-dihydro-1H-isoquinoline-2-carboxylic acid tert-butyl ester] | 12.2 | 5.9 |  |  |
| COc1cc2c(cc1OC)C(Cc1ccc(-c3cnccc3OC)cc1)N(C)CC2 (stereo not drawn) [Compound 23, 6,7-Dimethoxy-1-[4-(4-methoxypyridin-3-yl)benzyl]-2-methyl-1,2,3,4-tetrahydroisoquinoline hydrochloride] | 28.2 | 3.3 |  |  |
| COc1ncc(-c2ccc(CC3c4cc(OC)c(OC)cc4CCN3C(=O)OC(C)(C)C)cc2)c(OC)n1 (stereo not drawn) [Compound 25, 1-[4-(2,4-Dimethoxypyrimidin-5-yl)benzyl]-6,7-dimethoxy-3,4-dihydro-1H-isoquinoline-2-carboxylic acid tert-butyl ester] |  | 6.8 | No Effect |  |
| COc1ncc(-c2ccc(CC3NCCc4cc(OC)c(OC)cc43)cc2)c(OC)n1 (stereo not drawn) [Compound 26, 1-[4-(2,4-Dimethoxypyrimidin-5-yl)benzyl]-6,7-dimethoxy-1,2,3,4-tetrahydroisoquinoline hydrochloride] | 34 | 9.3 |  |  |
| COc1cc2c(cc1OC)C(Cc1ccc(-c3cncnc3)cc1)N(C(=O)OC(C)(C)C)CC2 (stereo not drawn) [Compound 28, 6,7-Dimethoxy-1-(4-pyrimidin-5-ylbenzyl)-3,4-dihydro-1H-isoquinoline-2-carboxylic acid tert-butyl ester] |  | 15.2 | No Effect |  |
| COc1cc2c(cc1OC)C(Cc1ccc(-c3cncnc3)cc1)NCC2.Cl (stereo not drawn) [Compound 29, 6,7-Dimethoxy-1-(4-pyrimidin-5-ylbenzyl)-1,2,3,4-tetrahydroisoquinoline hydrochloride] |  | 39.4 | No Effect |  |
| COc1cc2c(cc1OC)C(Cc1ccc(-c3cccnc3Cl)cc1)N(C(=O)OC(C)(C)C)CC2 (stereo not drawn) [Compound 31, 1-[4-(2-Chloro-pyridin-3-yl)benzyl]-6,7-dimethoxy-3,4-dihydro-1H-isoquinoline-2-carboxylic acid tert-butyl ester] |  | 3.5 | No Effect |  |
| COc1cc2c(cc1OC)C(Cc1ccc(-c3cccnc3Cl)cc1)NCC2 (stereo not drawn) [Compound 32, 1-[4-(2-Chloro-pyridin-3-yl)benzyl]-6,7-dimethoxy-1,2,3,4-tetrahydroisoquinoline hydrochloride] | 28.2 | 2.7 |  |  |
| CC(C)(C)OC(=O)N1CCc2cc3c(cc2C1Cc1ccc(-c2cnccc2Cl)cc1)OCO3 (stereo not drawn) [Compound 40, 5-[4-(4-Chloropyridin-3-yl)benzyl]-7,8-dihydro-5H-[1,3]dioxolo[4,5-g]isoquinoline-6-carboxylic acid tert-butyl ester] | 37.5 | 6.3 |  |  |
| Clc1ccncc1-c1ccc(CC2NCCc3cc4c(cc32)OCO4)cc1 (stereo not drawn) [Compound 42, 5-[4-(4-Chloropyridin-3-yl)benzyl]-5,6,7,8-tetrahydro-[1,3]dioxolo[4,5-g]isoquinoline dihydrochloride salt] | 81.5 | 2.5 |  |  |
| COc1ccncc1-c1ccc(CC2c3cc4c(cc3CCN2C(=O)OC(C)(C)C)OCO4)cc1 (stereo not drawn) [Compound 43, 5-[4-(4-methoxypyridin-3-yl)benzyl]-7,8-dihydro-5H-[1,3]dioxolo[4,5-g]isoquinoline-6-carboxylic acid tert-butyl ester] | 12.4 | 5.8 |  |  |
| COc1ccncc1-c1ccc(CC2NCCc3cc4c(cc32)OCO4)cc1 (stereo not drawn) [Compound 45, 5-[4-(4-methoxypyridin-3-yl)benzyl]-5,6,7,8-tetrahydro-[1,3]dioxolo[4,5-g]isoquinoline dihydrochloride salt] | 8.3 | 1.3 |  |  |
